From PubChem BioAssay (NCI) come the findings set out here.

“And” between values parts separate entries of the source, which are not always exact repeats. Equal entries are not always repeated.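 In this assay, cells in 96-well plates receive the compound at five concentrations for 48 hours. Endpoints are linearly interpolated between the surrounding concentrations. GI50 marks 50% less growth. TGI denotes the concentration required for complete inhibition of growth.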 Bounds are passed on as bounds.

Common to all, as to test: NCI-60 cell line screen, 48 h
Experiment [1] relates to A498 renal.
In experiment [2] the test system is MALME-3M melanoma.
In experiment [3] the test system is MOLT-4 leukemia.
Experiment [4] concerns PC-3 prostate.
The subject of experiment [5] is RPMI-8226 leukemia.
Experiment [6] relates to SF-295 CNS.
The subject of experiment [7] is SF-539 CNS.
The subject of experiment [8] is SK-MEL-28 melanoma.
Experiment [9] has as its system SNB-19 CNS.
In experiment [10] the test system is T-47D breast.

`COC(=O)c1cc2c(cc1Cl)SC(N(N(C)C)S(=O)(=O)c1ccc(Br)s1)=NS2(=O)=O`: the GI50 in experiment [1] is 28.8 µM; in [2], 24.9 µM; in experiment [3], 15.5 µM; in [4], 16 µM; in experiment [5], 25.4 µM; in experiment [6] it was 33.2 µM. The GI50 in experiment [7] was 21.2 µM; in experiment [8], 17.8 µM; in experiment [9], 21.2 µM; in experiment [10] it was 12.8 µM. The TGI in experiment [1] is 80.1 µM; in experiment [2], 74 µM; in [3], 36.1 µM; in experiment [4], 35.1 µM; in experiment [5], 74.1 µM; in [6] it was 97.3 µM. Also, the TGI in experiment [7] is 51.5 µM; in experiment [8], 35.3 µM; in [9], 58.4 µM; in experiment [10], 43.1 µM.

`CC(=O)Nc1ccc(C(=O)NN2C(=O)C(Cl)C2c2ccc(Cl)cc2)cc1` (centres undefined): the TGI in experiment [2] was above 65.8 µM; in [3], above 100 µM; in experiment [4], above 100 µM; in [5] it was above 100 µM; in experiment [6] it was 44.7 µM; in experiment [7], above 54.2 µM. Further, the results for the TGI in [8], in [9] and in experiment [10] were above 100 µM, 59.2 µM and above 100 µM, respectively.

For `C=C1C(=O)C23CC1C[C@H](OC(C)=O)[C@H]2C1(C)C(OC(C)=O)C[C@H](O)C(C)(C)[C@H]1C(=O)[C@@H]3OC(C)=O` (some centres undefined), the TGI is 29.7 µM in [1]; 5.15 µM in [2]; 4.03 µM in [3]; 24.6 µM in [4]; 4.81 µM in [5]; 31.9 µM in experiment [6]. Moreover, the TGI in [7] came to 6.47 µM; in experiment [8] it was 13.2 µM; in [9], 34.6 µM; in experiment [10], 5.44 µM.

For `CC(C)=CCCC(C)c1ccc(C)c2c1OCN(CC1CCNCC1)C2` (centres undefined), the GI50 in [1] was 12.3 µM; in experiment [2], 17.7 µM; in experiment [3], 14.6 µM; in [4], 16.5 µM; in experiment [5] it was 7.25 µM; in experiment [6], 15.9 µM. The GI50 in experiment [7] is 13.7 µM; in experiment [8] it was 15.7 µM; in experiment [9] it was 14 µM; in experiment [10] it was 15.2 µM. Moreover, the TGI came to 26 µM in experiment [1]; 35.3 µM in [2]; 43.3 µM in [3]; 42.1 µM in experiment [4]; 32.6 µM in experiment [5]; 34.9 µM in [6]. The TGI in experiment [7] turned out to be 27.5 µM; in experiment [8], 29.3 µM; in experiment [9] it was 29.4 µM; in experiment [10] it was 33.2 µM.

On to `O=c1c2cc(Cl)ccc2oc2ccc(OCCCCCN3CCCCC3)cc12`, for which the GI50 in experiment [1] was 6.28 µM; in experiment [2], 6.86 µM; in experiment [3] it was 3.16 µM; in experiment [4], 6.05 µM; in experiment [5], 3.6 µM; in experiment [6], 6.62 µM. The GI50 was 4.21 µM in experiment [7], 1.09 µM in experiment [8], 6.83 µM in experiment [9] and 7.21 µM in experiment [10]. Moreover, the TGI in experiment [1] was determined as 12.8 µM; in experiment [2], 14.1 µM; in [3], 10.7 µM; in [4], 12.7 µM; in experiment [5], 12.4 µM; in experiment [6], 13.5 µM. The TGI in experiment [7] was found to be 10.6 µM; in experiment [8], 2.66 µM; in experiment [9] it was 13.5 µM; in experiment [10], 17 µM.

Regarding `Cc1cc(C)c([O-])c(CN(C)CCN(C)Cc2cc(C)cc(C)c2[O-])c1.O=C([O-])c1cccc(C(=O)[O-])n1.[Ti+4]`, the GI50 was 3.72 µM in experiment [1]; 1.45 µM in experiment [2]; 3.12 µM in [3]; 2.7 µM in [4]; 1.37 µM in [5]; 2.57 µM in experiment [6]. The GI50 in [8] was 2.42 µM; in experiment [9] it was 3.25 µM; in experiment [10], 1.28 µM. For the same molecule, the TGI in [1] is above 100 µM; in experiment [2], 5.21 µM; in experiment [3], above 100 µM; in [4], above 100 µM; in experiment [5], 5.17 µM; in experiment [6] it was above 100 µM. Moreover, the TGI in experiment [8] is 8.37 µM; in [9], above 100 µM; in experiment [10] it was above 100 µM.

Consider `CCN(CC)CC(O)CNc1ccc(NCC2CO2)c2c1C(=O)c1ccccc1C2=O` (centres undefined), for which the TGI in experiment [1] was 11.6 µM; in experiment [2], 5.44 µM; in experiment [3], 0.0582 µM and 0.0292 µM; in experiment [4] it was 3.06 µM; in experiment [5] it was 5.35 µM; in [6], 4.6 µM. The TGI in [7] was 3.08 µM; in experiment [8], 3.5 µM; in experiment [9] it was 7.52 µM. Moreover, the GI50 in experiment [3] is 0.00515 µM; in experiment [4], 0.395 µM; in experiment [8], 0.631 µM.

As to `CSc1nc(C)c2c(n1)SCC2`, the TGI in experiment [1], in experiment [2], in experiment [3], in experiment [4], in [5] and in [6] was above 10 µM each time. Further, the TGI in experiment [7], in [8], in experiment [9] and in experiment [10] was above 10 µM in each case.

Regarding `COc1ccc([N+](=O)[O-])c2c(NCCCN(C)C)c3ccccc3nc12`, the TGI in [1] was 0.0733 µM; in experiment [2], 0.336 µM; in [3], 1.39 µM; in experiment [4] it was 0.372 µM; in experiment [5], 2.17 µM; in [6] it was 0.693 µM. The TGI in experiment [7] was found to be 1.49 µM; in experiment [8] it was 13.4 µM; in [9], 3.51 µM; in experiment [10], 3.95 µM.
